Patent US7094909B2, “HIV protease inhibitors, compositions containing the same, their pharmaceutical uses and materials for their synthesis” (priority 2001, dated 2006)

Key:
[1] = molecular target: T1, HIV-1 protease (Q7S mutant form) (Human immunodeficiency virus type 1 group M subtype B, UniProt P04585, Q495S); test: HIV-1 Protease RET assay; format: biochemical; settings: Ave. Ki (nM), RET assay, Q7S enzyme, Morrison tight binding fit
T1 construct: made in house
Outline: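 Ki values fitted with the Morrison tight-binding equation from steady-state RET cleavage (ex 340, em 490 nm) of 5 μM RE(EDANS)SQNYPIVQK(DABCYL)R. Buffer pH 4.8 acetate, 1M NaCl, 5 mM DTT, 1 mg/ml BSA, 10% DMSO; 2 nM Q7S mutant dimer, 37 °C, 12 min.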

[2] = test system: HIV-1 (HIV-1 RF, HIV-1 NL4-3) in CEM-SS / MT-2 cells; test: Cytopathic effect (CPE) inhibition assay (XTT/MTT dye reduction); format: cell-based; settings: Human immunodeficiency virus 1, NL43; read-out: Ave CPE EC50
Outline: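 Readout is XTT reduction (A450, 4 h) after six days of culturing virus-infected (moi 0.025–0.819) or mock-infected CEM-SS/MT-2 cells, 2×10^4 per well, with half-log compound series. Antiviral EC50 and cytotoxic CC50 are relative to uninfected compound-free cells. Therapeutic index is CC50 divided by EC50.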

| SMILES | Ki [1] | EC50 [2] |
| --- | --- | --- |
| Cc1ccccc1CNC(=O)[C@H]1N(C(=O)[C@@H](O)[C@H](Cc2ccccc2)NC(=O)CCCO)CSC1(C)C [Example B85] | 1.3 nM | 363 nM |
| Cc1c(O)cccc1C(=O)N[C@@H](Cc1ccccc1)[C@H](O)C(=O)N1CC(F)(F)C[C@H]1C(=O)N[C@H]1CCCc2ccccc21 [Example C3, (S)-4,4-Difluoro-1-((2S,3S)-2-hydroxy-3-{[1-(3-hydroxy-2-methyl-phenyl)-methanoyl]-amino}-4-phenyl-butanoyl)-pyrrolidine-2-carboxylic acid (1,2,3,4-tetrahydro-naphthalen-1-yl)-amide] | 0.16 nM | 486 nM |
| CCCNC(=O)[C@@H]1CC(F)(F)CN1C(=O)[C@@H](O)[C@H](Cc1ccccc1)NC(=O)c1cccc(O)c1C [Example C7, 4,4-Difluoro-1-[2-hydroxy-3-(3-hydroxy-2-methyl-benzoylamino)-4-phenyl-butyryl]-pyrrolidine-2-carboxylic acid propylamide] | 3 nM | 347 nM |
| Cc1c(O)cccc1C(=O)N[C@@H](Cc1ccccc1)[C@H](O)C(=O)N1CC(F)(F)C[C@H]1C(=O)NCc1ccccc1Cl [Example C10, 4,4-Difluoro-1-[2-hydroxy-3-(3-hydroxy-2-methyl-benzoylamino)-4-phenyl-butyryl]-pyrrolidine-2-carboxylic acid 2-chloro-benzylamide] | 1.5 nM | 1290 nM |
| Cc1c(O)cccc1C(=O)N[C@@H](Cc1ccccc1)[C@H](O)C(=O)N1CC(F)(F)C[C@H]1C(=O)NCc1ccc2c(c1)OCO2 [Example C11, 4,4-Difluoro-1-[2-hydroxy-3-(3-hydroxy-2-methyl-benzoylamino)-4-phenyl-butyryl]-pyrrolidine-2-carboxylic acid (benzo[1,3]dioxol-5-ylmethyl)-amide] | 2.8 nM | 1310 nM |
| COc1cccc(CNC(=O)[C@@H]2CC(F)(F)CN2C(=O)[C@@H](O)[C@H](Cc2ccccc2)NC(=O)c2cccc(O)c2C)c1 [Example C12, (S)-4,4-Difluoro-1-[(2S,3S)-2-hydroxy-3-(3-hydroxy-2-methyl-benzoylamino)-4-phenyl-butyryl]-pyrrolidine-2-carboxylic acid 3-methoxy-benzylamide] | 2.7 nM | 1770 nM |
| COc1ccc(CNC(=O)[C@@H]2CC(F)(F)CN2C(=O)[C@@H](O)[C@H](Cc2ccccc2)NC(=O)c2cccc(O)c2C)cc1 [Example C13, (S)-4,4-Difluoro-1-[(2S,3S)-2-hydroxy-3-(3-hydroxy-2-methyl-benzoylamino)-4-phenyl-butyryl]-pyrrolidine-2-carboxylic acid 4-methoxy-benzylamide] | 0.59 nM | 1180 nM |
| Cc1c(O)cccc1C(=O)N[C@@H](Cc1ccccc1)[C@H](O)C(=O)N1CC(F)(F)C(C)(C)[C@H]1C(=O)NCc1ccco1 [Example C20, (S)-4,4-Difluoro-1-[(2S,3S)-2-hydroxy-3-(3-hydroxy-2-methyl-benzoylamino)-4-phenyl-butyryl]-3,3-dimethyl-pyrrolidine-2-carboxylic acid (furan-2-ylmethyl)-amide] | < 0.1 nM | 35 nM |
| Cc1ccccc1CNC(=O)[C@@H]1CC(F)(F)CN1C(=O)[C@@H](O)[C@H](Cc1ccccc1)NC(=O)O[C@H]1CCOC1 [Example C41, {(1S,2S)-1-Benzyl-3-[(S)-4,4-difluoro-2-(2-methyl-benzylcarbamoyl)-pyrrolidin-1-yl]-2-hydroxy-3-oxo-propyl}-carbamic acid (S)-(tetrahydro-furan-3-yl)ester] | 1.3 nM | 1430 nM |
| Cc1ccccc1CNC(=O)[C@@H]1CC(F)(F)CN1C(=O)[C@@H](O)[C@H](Cc1ccccc1)NC(=O)c1ccc(C)c(O)c1C [Example C42, (S)-4,4-Difluoro-1-((2S,3S)-2-hydroxy-3-{[1-(3-hydroxy-2,4-dimethyl-phenyl)-methanoyl]-amino}-4-phenyl-butanoyl)-pyrrolidine-2-carboxylic acid 2-methyl-benzylamide] | 4 nM | 3200 nM |
